In US7312219B2, “Heteroaromatic inhibitors of fructose 1,6-bisphosphatase” (Metabasis Therapeutics, Inc., priority 1998, dated 2007):

Legend:
db/db Mouse = experiment: Hepatic Glycogen Levels in the db/db Mouse; assay type: in vivo; settings: db/db mice
Method: Db/db mice and their nondiabetic db/+ littermates were obtained at 8 weeks of age (Jackson Labs., Bar Harbor, Me.) and enrolled in the study at 11 weeks of age. […] Db/+ mice were treated with saline according to the same schedule. At 6 pm, mice were anesthetized with halothane and a small section of liver (0.5 g) was removed by the freeze-clamping technique. The liver samples were fully frozen by subsequent immersion in liquid nitrogen and then homogenized in 5 volumes of cold 0.6 N perchloric acid. Glycogen content was determined enzymatically in the homogenates by the method of Keppler and Decker (Keppler D and Decker K in Methods of Enzymatic Analysis, Bergmeyer, H U, Ed., Verlag Chemie International, Deerfield Beach, Fla., 1974).

Fasted Rats = experiment: Blood Glucose Lowering Following Intravenous Administration to Fasted Rats; assay type: in vivo, rat; settings: 18 h fasted Sprague Dawley rats, relative to saline-treated controls
Method: Inhibitors were disolved in water and the solution adjusted to neutrality with NaOH. Blood samples were obtained from the tail vein of conscious animals just prior to injection and after 1 hour. Blood glucose was measured using a HemoCue Inc. glucose analyzer according to the instructions of the manufacturer.

Fasted Rat = experiment: Glucose Lowering Following Oral Administration to the Fasted Rat; assay type: in vivo; settings: oral gavage, 18-hour fasted rats, dose 30 mg/kg, time point 2 h, relative to saline controls
Method: Compounds were administered by oral gavage to 18-hour fasted, Sprague Dawley rats (250–300 g, n =3/4/group). Phosphonic acids were prepared in deionized water, and the solution adjusted to neutrality with solidum hydroxide. Prodrugs were dissolved in polyethylene glycol (mw 400). […] The table below indicates the maximum glucose lowering achieved relative to control animals dosed with saline.

[1] = Analysis of Drug Levels and Liver Accumulation in Rats; assay type: in vivo, rat; settings: Sprague-Dawley, rat, iv; fasted rats, 10 mgs/kg i.v., one hour post injection, plasma; read-out: Plasma Conc.
Method: The compound was dissolved in water and the solution adjusted to neutrality with NaOH. One hour post injection rats were anesthetized with halothane and a liver biopsy (approx. 1 g) was taken as well as a blood sample (2 ml) from the posterior vena cava. A heparin flushed syringe and needle were used for blood collection. The liver sample was immediately homogenized in ice-cold 10% perchloric acid (3 ml), centrifuged, and the supernatant neutralized with ⅓rd volume of 3 M KOH/3 M KHCO3. […] Plasma was prepared from the blood sample by centrifugation and extracted by addition of methanol to 60% (v/v). The methanolic extract was clarified by centrifugation and filtration and then analyzed by HPLC as described above.

[2] = test system: Zucker Diabetic Fatty rats; experiment: Blood Glucose Lowering in Zucker Diabetic Fatty Rats, Intravenous; assay type: in vivo, rat; settings: six hour time point
Method: 12-week old Zucker Diabetic Fatty rats (Genetics Models Inc., Indiannapolis, Ind.) maintained on Purina 5008 diet were instrumented with tail artery and tail vein catethers at 8 am on the day of the study. Food was removed for the remainder of the day. […] Blood samples were obtained from the tail artery catheter at the start of the infusions, and at hourly intervals thereafter. Glucose was measured in the samples by means of a HemoCue analyzer (HemoCue Inc., Mission Viejo, Calif.) according to the manufacturer's instructions.

[3] = test system: Gluconeogenesis in Zucker Diabetic Fatty Rats; experiment: Inhibition of Gluconeogenesis by FBPase Inhibitor in Zucker Diabetic Fatty Rats (14C-bicarbonate to 14C-glucose); assay type: in vivo, rat; settings: after 6-hour infusion at 3 mg/kg/h, n=3/group
Method: Following a 6-hour infusion of 3.26 at 3 mg/kg/h or saline to Zucker Diabetic Fatty rats (n=3/group) as described in Example K, a bolus of ^14C-bicarbonate (40 μCi/100 g body weight) was administered via the tail vein catheter. 20 minutes later, a blood sample (0.6 mL) was taken via the tail artery. Blood (0.5 ml) was diluted into 6 mL deionized water and protein precipitated by addition of 1 mL zinc sulfate (0.3 N) and 1 mL barium hydroxide (0.3 N). The mixture was centrifuged (20 minutes, 1000×g) and 5 mL of the resulting supernatant was then combined with 1 g of a mixed bed ion exchange resin (1 part AG 50W-X8, 100–200 mesh, hydrogen form, and 2 parts AG 1-X8, 100–200 mesh, acetate form) to separate ^14-C-bicabonate from ^14C-glucose. The slurry was shaken at room temperature for four hours and then allowed to settle. An aliquot of the supernatant (0.5 mL) was then counted in 5 mL scintillation cocktail. The percentage inhibition of gluconeogenesis in drug-treated rats was calculated by dividing the average cpm of ^14C-glucose in samples from drug-treated animals by those from saline-injected animals.

[4] = test system: Zucker Diabetic Fatty rats; experiment: Blood Glucose Lowering in Zucker Diabetic Fatty Rats, Oral; assay type: in vivo, rat
Method: Zucker Diabetic Fatty rats were purchased from Genetics Models Inc. (Indiannapolis, Ind.) at 8 weeks of age and fed the recommended Purina 5008 diet. At the age of 12 weeks, 16 animals with fed blood glucose levels between 500 and 700 mg/dl were selected and divided into two groups (n=8) with statistically equivalent average blood glucose levels. […] The drug solution for this treatment was prepared at 25 mg/ml in deionized water and adjusted to neutrality by dropwise addition of 5 N NaOH. A second group of rats (n=8) was dosed orally with saline, in parallel. Blood glucose was measured in each rat just prior to drug or saline administration and 6 hours post administration. A HemoCue blood glucose analyzer (HemoCue Inc., Mission Viejo, Calif.) was used for these measurements according to the manufacturer's instructions.

Compound: CSc1sc(N)nc1-c1ccc(P(=O)(O)O)o1 [Compound 3.26, 2-Amino-5-methylthio-4-[2-(5-phosphono)furanyl]thiazole]
- liver glycogen stores (db/db Mouse; 100 mg/kg oral at 8 am and 2 pm, liver taken 6 pm): reduction of glycogen stores to levels that approached those of nondiabetic db/+ mice
- Liver Glycogen (db/db Mouse; 100 mg/kg orally at 8 am and 2 pm, Evening, 6 pm): 34.4 ± 7.1 (n = 3) μmol glucose/g
- blood glucose lowering (Fasted Rats; 3 mg/kg intravenous): 52%
- inhibition in vivo at 10 mg/kg (Fasted Rats; Rattus norvegicus, iv, 10 mg/kg i.v., 1 hour): 73%
- % Glucose Lowering (maximum) (Fasted Rat): 70%
- concentration at 1 h [1]: 56 ± 2 µM
- decrease in blood glucose relative to saline-infused controls ([2]; 3 mg/kg/h tail vein infusion): 29%
- decrease in blood glucose relative to saline-infused controls ([2]; 30 mg/kg/h tail vein infusion): 39%
- 14C-Glucose production inhibited [3]: 75%
- lowering of blood glucose relative to saline treated controls ([4]; 100 mg/kg oral, 6 hours post administration, p=0.01): 15.4%
- Blood Glucose, 7 pm ([4]; 6 hours post 100 mg/kg oral gavage, n=8): 497 ± 14 mg/dL
- Blood Glucose, 1 pm ([4]; just prior to administration of 100 mg/kg by oral gavage, n=8): 573 ± 26 mg/dL
